Results: PMC3669024, “Pharmacological Characterization of a 5-HT1-Type Serotonin Receptor in the Red Flour Beetle, Tribolium castaneum” (PLoS ONE, 2013)
Where a name gives a salt, the structure may show the parent alone. Read-outs that look alike come from different tables or passages of the source.

Tests used:
Type in all cases: cell-based
Trica5-HT1 [1] = biological target: T1, Trica5-HT1 (Tribolium castaneum, UniProt R9ULB8); assay: Aequorin-luminescence assay, agonist activation of Trica5-HT1 in CHO-WTA11 cells (apoaequorin + Gα16)
Method: (§1) General binding studies were performed in Chinese hamster ovary (CHO) WTA11 cells stably coexpressing apoaequorin and the promiscuous Gα16. This allowed us to measure the pharmacology independent of the downstream signaling. CHO-PAM28 cells stably expressing apoaequorin, but not the promiscuous Gα16, and human embryonic kidney cells (HEK) 293 cells were used to measure downstream signaling via Ca^2+ and cAMP, respectively. CHO cell lines were provided by Prof. Marc Parmentier (University of Brussels, Belgium) and Dr. Michel Detheux (Euroscreen S.A., Belgium). HEK293 cells were a gift from Prof. Arnd Baumann (Research Centre Jülich, Germany.
(§2) Cells were cultured in vitro as monolayers at 37°C, 5% CO2 and high relative humidity, and subcultivated twice a week. For transfection of CHO cells, 2.5 ml Opti-MEM®I (Invitrogen), 5 µg plasmid DNA and 12.5 µl Plus^TMreagent (Invitrogen) were mixed, stored at room temperature for 5 min and next repleted with 30 µl Lipofectamine™LTX (Invitrogen). After 30 min incubation at room temperature, this transfection mixture was added dropwise to the cells together with 5 ml medium. HEK293 cells were cotransfected with receptor construct (4 µg) and CRE-luciferase construct (2 µg), consisting of the open reading frame of the reporter gene, luciferase, downstream of a multimerized cAMP-response-element (CRE6x), [39]. All transfections were performed in T75 flasks with a confluency of about 60 percent. Cells were grown overnight, after which 15 ml of medium was added for an additional overnight incubation period.
The transfected CHO cells were detached with phosphate buffered saline (PBS) containing 0.2% EDTA and collected in DMEM/F-12 (without phenol red, with L-glutamine and 10 mM HEPES) (Gibco). The amount of viable cells was determined using the NucleoCounter NC-100+TM (Chemometic). Cells were pelleted for 4 min at 800 rpm at room temperature and resuspended in BSA-medium (DMEM/F12 without phenol red, with L-glutamine and 10 mM HEPES, supplemented with 0.1% bovine serum albumin) to a concentration of 5×10^6 cells/ml. Coelenterazine H (Invitrogen) was added to a final concentration of 5 µM, and cells were gently shaken for 4 h at room temperature in the dark. After a 10-fold dilution in BSA-medium, cells were incubated another 30 min. The pharmacological ligands were dissolved in BSA-medium. For agonists, 50 µl containing the final ligand concentration was added to appropriate wells of a 96-well plate. For antagonists, 25 µl of the antagonist solution was supplemented with 25 µl of a 5-HT solution. Receptor activity was measured as the light emission after adding 50 µl of the cell suspension. Light emission was measured for 30 s using a Mithras LB940 (Berthold Technologies). Subsequently, cells were lysed with Triton X-100 (0.1% in BSA-medium) and light emission was recorded for another 8 s. BSA-medium was used as a negative control. Light emission from each well was calculated relative to the total response (ligand+Triton X-100) using the output file of Mikrowin2000 software (Mikrotek). Further analysis was done in Graphpad Prism 5.
In order to pharmacologically characterize Trica5-HT1, we used CHO-WTA11 cells stably expressing apoaequorin and the promiscuous Gα16 subunit. […] The dose-response relationship for 5-HT and these synthetic agonists was examined at concentrations ranging from 1 pM to 1 mM (Figure 3B). […] Since the efficacy achieved by any agonist depends on the number of receptors expressed, we measured a dose-response curve for 5-HT in every experiment and normalized all agonist effects to the maximum 5-HT response, set at 100% (Figure 3B).

Trica5-HT1 [2] = biological target: T1, Trica5-HT1; assay: Aequorin-luminescence assay in CHO-PAM28 cells (no Gα16), Ca2+ signaling of Trica5-HT1; conditions: CHO-PAM28 cells transfected with the receptor
Method: as §1
Cells were cultured in vitro as monolayers at 37°C, 5% CO2 and high relative humidity, and subcultivated twice a week. […] HEK293 cells were cotransfected with receptor construct (4 µg) and CRE-luciferase construct (2 µg), consisting of the open reading frame of the reporter gene, luciferase, downstream of a multimerized cAMP-response-element (CRE6x), [39]. […]
The transfected CHO cells were detached with phosphate buffered saline (PBS) containing 0.2% EDTA and collected in DMEM/F-12 (without phenol red, with L-glutamine and 10 mM HEPES) (Gibco). The amount of viable cells was determined using the NucleoCounter NC-100+TM (Chemometic). […] Receptor activity was measured as the light emission after adding 50 µl of the cell suspension. […]

Trica5-HT1 [3] = biological target: T1, Trica5-HT1; assay: CRE-luciferase reporter-gene assay, NKH-477 stimulated cAMP in HEK293 cells expressing Trica5-HT1; conditions: for IC50: NKH-477 stimulated cAMP
Method: as §1, §2
Cotransfected HEK293 cells were detached and the amount of viable cells was determined as described for CHO cells. Cells were pelleted for 4 min at 800 rpm at room temperature and resuspended in DMEM/F12 medium (without phenol red, with L-glutamine and 10 mM HEPES) containing 200 µM 3-isobutyl-1-methylxanthine (IBMX, Sigma-Aldrich) to a concentration of 10^6 cells/ml. The pharmacological ligands were dissolved in DMEM/F12 medium without phenol red containing 200 µM IBMX. The water-soluble forskolin analog NKH-477 was added to a concentration of 20 µM to measure Trica5-ht1-mediated effects on cellular cAMP signaling. In each well of a 96-well plate, 50 µl of ligand suspension and 50 µl of cell suspension were dispensed. […] Light emission was measured for 5 s per well using a Mithras LB940 (Berthold Technologies). […] Data were analyzed as described for CHO cells.
CHO-PAM28 and HEK293 cells were used to determine the downstream signaling pathway of Trica5-HT1. […] Relative high variation in the data can be explained by assay based variation since cells were not counted when dispensed. […]

T1 sequence (R9ULB8 entry or part of it): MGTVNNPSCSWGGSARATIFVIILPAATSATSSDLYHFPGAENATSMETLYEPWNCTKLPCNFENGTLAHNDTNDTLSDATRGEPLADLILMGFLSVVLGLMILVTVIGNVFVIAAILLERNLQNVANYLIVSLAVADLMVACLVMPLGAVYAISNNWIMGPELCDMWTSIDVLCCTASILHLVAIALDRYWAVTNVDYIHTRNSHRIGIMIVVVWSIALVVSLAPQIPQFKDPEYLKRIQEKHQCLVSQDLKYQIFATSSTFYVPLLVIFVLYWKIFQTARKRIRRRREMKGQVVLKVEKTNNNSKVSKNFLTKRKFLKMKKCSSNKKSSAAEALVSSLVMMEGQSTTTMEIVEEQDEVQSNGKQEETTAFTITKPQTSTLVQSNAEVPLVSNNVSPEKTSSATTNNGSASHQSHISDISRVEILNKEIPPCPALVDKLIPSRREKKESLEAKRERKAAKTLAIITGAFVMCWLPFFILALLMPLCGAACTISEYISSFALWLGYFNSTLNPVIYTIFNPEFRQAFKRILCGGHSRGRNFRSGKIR

Question: How did the “concentration at which the maximal response was attained” value (Trica5-HT1 [1]; CHO-WTA11 cells) turn out when `NCCc1c[nH]c2ccc(O)cc12` [5-HT, 5-HT hydrochloride] was run?
Answer: ≥ 10 µM

Question: And the “response at 100 µM agonist” value (Trica5-HT1 [1]; CHO-WTA11 cells, 100 µM, Figure 3A)?
Answer: Significant responses

Question: And the EC50 (Trica5-HT1 [1]; EC50, receptor activation in CHO-WTA11 cells)?
Answer: 95 nM

Question: What about the EC50 (Trica5-HT1 [1]; Half-maximal activation (EC50), CHO-WTA11 cells) of the same compound?
Answer: 95.2 nM

Question: What about the EC50 (Trica5-HT1 [1]; logEC50 (mean ± SEM), receptor activation in CHO-WTA11 cells, given as negative log values) of the same compound?
Answer: 97.7 nM

Question: And the “effect on Ca2+ signaling” value (Trica5-HT1 [2])?
Answer: No effect

Question: What about the “concentration at which maximal attenuation of cAMP synthesis was attained” value (Trica5-HT1 [3]) of the same compound?
Answer: ≥ 10 µM

Question: And the “Maximal attenuation of cAMP synthesis” value (Trica5-HT1 [3]; 5-HT ≥10 µM)?
Answer: ~40%

Question: And the IC50 (Trica5-HT1 [3]; given as negative log value, read-out: logIC50 (mean ± SEM) (converted))?
Answer: 83.2 nM

Question: And the IC50 (Trica5-HT1 [3]; read-out: Half maximal reduction of cAMP)?
Answer: 82.7 nM
